Patent US20250263370A1 (Tay Therapeutics Limited, priority 2022, published 2025)
Values joined by “and” are separate entries in the source; they are usually repeats but may differ in a detail not shown here. Identical values can stand only once.

Key:
[1] = Plasma stability assay, human plasma; assay type: in vitro ADME; settings: Method 1 (5 μM)
Description: From stock solution of compound in 10 mM DMSO, a working solution of 1 mM is prepared by diluting the compound in DMSO. To 398 μL of plasma pre-warmed at 37° C. for 15 minutes), 2 μL of working solution of compound is added, resulting in a final concentration of 5 μM (0.5% DMSO) for the compound. The sample is then incubated at 37° C. Aliquot is withdrawn at specified time-points (0, 15, 30, 60 and 120 mins). The reaction is stopped by addition of 450 μL cold acetonitrile containing internal standard (IS). […] Aliquots of the supernatant is analysed using LC-MS/MS. The percent remaining of the compound at each time point is calculated with respect to the control sample (0 min time-point).
A working solution of compound (500 μM) is prepared in DMSO (100%). To 735 μL of plasma, 15 μL of working solution of compound is added—resulting in a final concentration of 10 μM (2% DMSO) for the compound. The sample is then incubated at 37° C. Aliquot is withdrawn at time-points—0, 15, 30, 60, 90 and 120 mins. The reaction is stopped by using chilled acetonitrile containing internal standard (IS). The samples are centrifuged and the supernatants analyzed using LC-MS/MS. The percent remaining of the compound at each time point is calculated with respect to the control sample (0 min time-point).

[2] = test system: Col1a1, TGF-b1, MCP-1, IL-1b, IL-6, IL-17, TNF-a, and Timp1; assay: Tissue biomarker mRNA by RT-PCR in ligated kidney of UUO rats; assay type: in vivo, rat
Text: Serum for blood biochemistry analysis was collected into centrifuge tubes without coagulant four hours after final dosing. Blood plasma samples from group 3 was collected into tubes with K2EDTA four hours after final dosing. At the conclusion of the study (end of the 14-day period), animals were euthanized. Kidney tissue was collected four hours after final dosing. Ligated side kidney was divided into three copies ⅓ fix into 10% formalin for H&E analysis, ⅓ into RNA for PCR analysis of tissue biomarkers Col1a1, TGF-b1, MCP-1, IL-1b, IL-6, IL-17, TNF-a, and Timp1, and ⅓ for hydroxyproline assay analyzed by ELISA. RNA was extracted from tissue using the RNeasy mini kit (Qiagen). RNA concentration was measured using a NanoDrop One Spectrophotometer (ThermoFisher) and converted to cDNA using a High-Capacity RNA-to-cDNA kit (Invitrogen). RT-PCR was performed to measure levels of mRNA of different targets using TaqMan® Gene Expression Master Mix and TaqMan® probe/primer sets on a QuantStudio 6, Real-Time PCR System (ThermoFisher). Fold change in target gene expression was determined using the ΔΔCt method.

BD 2 = BD 2 (Homo sapiens, UniProt O60885); assay: Free EC50 for BD 2, compared with plasma concentration

**Q.** What does the source list for `CNC(=O)c1[nH]c(C(=O)NC2CCC2)cc1O[C@@H](C)c1ccccc1` (stereo in doubt) [Example 101, N^5-cyclobutyl-N^2-methyl-3-(1-phenylethoxy)-1H-pyrrole-2,5-dicarboxamide]?
**A.** Plasma Stability (% remaining at 120 minutes), Human [1]: 93%; Col1a1 tissue RNA level relative to UUO + vehicle ([2]; 30 mg/kg BID, kidney): reduced levels; IL-1b tissue RNA level relative to UUO + vehicle ([2]; 30 mg/kg BID, kidney): reduced levels; IL-6 tissue RNA level relative to UUO + vehicle ([2]; 30 mg/kg BID, kidney): reduced levels; MCP-1 tissue RNA level relative to UUO + vehicle ([2]; 30 mg/kg BID, kidney): reduced levels; TGF-b1 tissue RNA level relative to UUO + vehicle ([2]; 30 mg/kg BID, kidney): reduced levels; Timp1 tissue RNA level relative to UUO + vehicle ([2]; 30 mg/kg BID, kidney): reduced levels; expression of IL-17 relative to UUO + vehicle ([2]; 30 mg/kg BID, kidney): limited effect; expression of TNF-α relative to UUO + vehicle ([2]; 30 mg/kg BID, kidney): limited effect; Col1a1 RNA level, Normalized Fold Change ([2]; 30 mg/kg, individual animals): 0.67 and 0.33 and 0.21 and 0.55 and 0.28 and 0.41 and 0.86 and 0.69; IL-1b RNA level, Normalized Fold Change ([2]; 30 mg/kg, individual animals): 0.43 and 0.18 and 0.29 and 0.69 and 0.55 and 0.27 and 0.56 and 0.67; IL-6 RNA level, Normalized Fold Change ([2]; 30 mg/kg, individual animals): 0.06 and 0.05 and 0.03 and 0.33 and 0.12 (2×) and 0.26 and 0.07; IL-17 RNA level, Normalized Fold Change ([2]; 30 mg/kg, individual animals): 0.79 and 0.22 and 0.24 and 2.09 and 1.81 and 0.54 and 0.70 and 0.94; MCP-1 RNA level, Normalized Fold Change ([2]; 30 mg/kg, individual animals): 0.34 and 0.26 and 0.32 and 0.53 and 0.42 and 0.27 and 0.68 and 0.61; TGF-b1 RNA level, Normalized Fold Change ([2]; 30 mg/kg, individual animals): 0.63 and 0.44 and 0.35 and 0.81 and 0.52 and 0.50 and 0.90 and 0.85; TNF-a RNA level, Normalized Fold Change ([2]; 30 mg/kg, individual animals): 0.90 and 0.48 and 0.32 and 1.53 and 1.00 and 0.69 and 0.94 and 1.55; Timp1 RNA level, Normalized Fold Change ([2]; 30 mg/kg, individual animals): 0.65 and 0.41 and 0.44 and 0.71 and 0.54 and 0.56 and 0.94 and 0.97; Col1a1 RNA level, Normalized Fold Change (Mean + SEM) ([2]; group mean, N 8): 0.50; IL-1b RNA level, Normalized Fold Change (Mean + SEM) ([2]; group mean, N 8): 0.46; IL-6 RNA level, Normalized Fold Change (Mean + SEM) ([2]; group mean, N 8): 0.13; IL-17 RNA level, Normalized Fold Change (Mean + SEM) ([2]; group mean, N 8): 0.92; MCP-1 RNA level, Normalized Fold Change (Mean + SEM) ([2]; group mean, N 8): 0.43; TGF-b1 RNA level, Normalized Fold Change (Mean + SEM) ([2]; group mean, N 8): 0.63; TNF-a RNA level, Normalized Fold Change (Mean + SEM) ([2]; group mean, N 8): 0.93; Timp1 RNA level, Normalized Fold Change (Mean + SEM) ([2]; group mean, N 8): 0.65; EC50 (BD 2): 606 nM
